According to US5631401A, “Inhibitors of protein farnesyltransferase and squalene synthase” (Abbott Laboratories, priority 1995, dated 1997):

Assays:
[1] = molecular target: T1, Rat brain protein farnesyltransferase (Rattus norvegicus, UniProt Q02293+Q04631); experiment: In vitro inhibition of protein farnesyltransferase (biotin-lamin substrate, scintillation proximity assay); assay type: biochemical; conditions: for inhibition at 1 µM: 1 μM (footnote *), read-out: % Inhibition at 1 μM (protein farnesyltransferase, values marked *); for inhibition at 10 µM: compared to uninhibited control
T1 construct: The enzyme was purified according to Reiss, Y., et al., Cell, 62: 81-88 (1990), utilizing steps one through three; from tissue; host or cells: rat brain
Experimental: In vitro inhibition of protein farnesyltransferase may be measured by the following procedure. (Procedures for determination of the inhibition of farnesylation of the oncogene protein Ras are described by Goldstein, et al., J. Biol. Chem., 266: 15575-15578 (1991) and by Singh in U.S. Pat. No. 5,245,061 both of which are incorporated herein by reference.)
Rat brain protein farnesyltransferase activity was measured using the biotin-lamin substrate (which is known to undergo farnesylation in a manner analogous to Ras protein) and radioactive farnesyl diphosphate provided by Amersham Life Science in their commercial scintillation proximity assay kit for the determination of farnesyltransferase. The enzyme was purified according to Reiss, Y., et al., Cell, 62: 81-88 (1990), utilizing steps one through three. The specific activity of the enzyme was approximately 10 nmol substrate farnesylated/mg enzyme/hour. […]

[2] = molecular target: T2, Rat liver microsomal squalene synthase (Rattus norvegicus, UniProt Q02769); experiment: In vitro inhibition of squalene synthase (rat liver microsomes, 3H-farnesyl diphosphate); assay type: biochemical; conditions: for inhibition at 1 µM: compared to controls with no test compound; for inhibition at 10 µM: 10 μM (footnote *), read-out: % Inhibition at 10 μM (squalene synthase, values marked *)
T2 construct: Rat liver microsomes, the source of enzyme, were prepared; from tissue; host or cells: rat liver microsomes
T2 sequence (Q02769 1-416): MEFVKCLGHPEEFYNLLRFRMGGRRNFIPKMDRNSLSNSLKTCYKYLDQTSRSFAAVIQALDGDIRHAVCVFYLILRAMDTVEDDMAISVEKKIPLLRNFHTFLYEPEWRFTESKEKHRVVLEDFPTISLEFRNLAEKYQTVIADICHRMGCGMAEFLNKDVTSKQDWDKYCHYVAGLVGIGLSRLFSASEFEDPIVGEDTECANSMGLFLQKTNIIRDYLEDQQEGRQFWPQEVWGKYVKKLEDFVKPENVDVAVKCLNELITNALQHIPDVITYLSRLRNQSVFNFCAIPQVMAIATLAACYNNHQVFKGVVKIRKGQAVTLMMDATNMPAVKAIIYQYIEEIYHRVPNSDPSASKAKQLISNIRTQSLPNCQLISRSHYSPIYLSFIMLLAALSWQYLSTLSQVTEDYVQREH
Experimental: In vitro inhibition of squalene synthase may be measured by the following procedure.
Rat liver microsomal squalene synthase activity was measured using radioactive farnesyl diphosphate as a substrate and quantitating squalene synthesis by counting the radioactive squalene formed.
Rat liver microsomes, the source of enzyme, were prepared according to the method of Gillies, P. J., et al., Exp. Molec. Pathol. 44: 329-339 (1986), a modification of the procedure of Erickson, S. K., and Cooper, A. D., Metabolism, 29: 991-996 (1980). Approximately 30 μg of microsomal protein was incubated for 10 minutes at 37° C. with 11 μM of ^3 H-farnesyl diphosphate, 49 mCi/mmol, and test compound in the presence of squalene (2 μL), Mg^++, KF, reduced B-nicotinamide adenine dinucleotide phosphate, dithiothreitol, and K2 PO4, pH 7.35, in a total volume of 200 μL. Oxygen was excluded from the closed incubation tube by degassing with nitrogen. The reaction was terminated by the addition of ethanolic KOH and after degassing with N2, the microsomal membranes were solubilized by heating at 60° C. for 30 minutes. The squalene was extracted into hexane, and the squalene was separated from all other radioactive molecules by passage over an activated alumina column. The solution was collected in scintillation vials, evaporated to dryness, liquid scintillation fluid was added, and the radioactivity was determined in a liquid scintillation counter. […]

Row | inhibition at 1 µM [1] [%] | inhibition at 1 µM [2] [%] | inhibition at 10 µM [1] [%] | inhibition at 10 µM [2] [%] | Structure (SMILES)
1 | 21 | 46 | – | – | O=C(O)[C@H]1[C@H](C(=O)N(Cc2ccc(Oc3ccccc3)cc2)CC2CCC2)[C@H](C(=O)O)[C@H]1C(=O)N(Cc1ccc(Oc2ccccc2)cc1)CC1CCC1 [Example 100, (1α,2β,3β,4α)-1,3-Di[N-cyclobutylmethyl-N-(4-phenoxybenzyl)aminocarbonyl]cyclobutane-2,4-dicarboxylic acid]
2 | – | 47 | 34 | – | CN(Cc1ccc(Oc2ccccc2)cc1)C(=O)[C@H]1[C@H](C(=O)O)[C@H](C(=O)N(C)Cc2ccc(Oc3ccccc3)cc2)[C@H]1C(=O)O [Example 14, (1α,2β,3β,4α)-1,3-Di[N-methyl-N-(4-phenoxybenzyl)aminocarbonyl]cyclobutane-2,4-dicarboxylic acid]
3 | – | – | 31 | 85 | CC(C)N(Cc1ccc(Oc2ccccc2)cc1)C(=O)[C@H]1[C@H](C(=O)O)[C@H](C(=O)N(Cc2ccc(Oc3ccccc3)cc2)C(C)C)[C@H]1C(=O)O [Example 24]
4 | – | 36 | 67 | – | COC(=O)CN(Cc1ccc(Oc2ccccc2)cc1)C(=O)[C@H]1[C@H](C(=O)O)[C@H](C(=O)N(CC(=O)OC)Cc2ccc(Oc3ccccc3)cc2)[C@H]1C(=O)O [Example 42, (1α,2β,3β,4α)-1,3-Di[N-methoxycarbonylmethyl-N-(4-phenoxybenzyl)aminocarbonyl]cyclobutane-2,4-dicarboxylic acid]
5 | – | – | – | 41 | O=C(O)[C@H]1[C@H](C(=O)N(Cc2ccc(Oc3ccccc3)cc2)Cc2ccc(Oc3ccccc3)cc2)[C@H](C(=O)O)[C@H]1C(=O)N(Cc1ccc(Oc2ccccc2)cc1)Cc1ccc(Oc2ccccc2)cc1 [Example 20, (1α,2β,3β,4α)-1,3-Di(N,N-di(4-phenoxybenzyl)aminocarbonyl)cyclobutane-2,4-dicarboxylic acid]
6 | – | – | 28 | 49 | C#CCN(Cc1ccc(Oc2ccccc2)cc1)C(=O)[C@H]1[C@H](C(=O)O)[C@H](C(=O)N(CC#C)Cc2ccc(Oc3ccccc3)cc2)[C@H]1C(=O)O [Example 28, (1α,2β,3β,4α)-1,3-Di(N-propargyl-N-(4-phenoxybenzyl)aminocarbonyl)cyclobutane-2,4-dicarboxylic acid]
7 | – | 30 | 81 | – | O=C(O)CCN(Cc1ccc(Oc2ccccc2)cc1)C(=O)C1C(C(=O)O)C(C(=O)N(CCC(=O)O)Cc2ccc(Oc3ccccc3)cc2)C1C(=O)O (stereo not drawn) [Example 44, (1α,2β,3β,4α)-1,3-Di[N-(2-carboxyethyl)-N-(4-phenoxybenzyl)aminocarbonyl]cyclobutane-2,4-dicarboxylic acid]
8 | – | 47 | 50 | – | COc1ccc(CN(Cc2ccc(Oc3ccccc3)cc2)C(=O)[C@H]2[C@H](C(=O)O)[C@H](C(=O)N(Cc3ccc(OC)cc3)Cc3ccc(Oc4ccccc4)cc3)[C@H]2C(=O)O)cc1 [Example 89]
9 | – | – | – | 25 | CN(c1ccc(-c2ccccc2)cc1)C(=O)[C@H]1[C@H](C(=O)O)[C@H](C(=O)N(C)c2ccc(-c3ccccc3)cc2)[C@H]1C(=O)O [Example 23, (1α,2β,3β,4α)-1,3-Di(N-methyl-N-biphenylaminocarbonyl)cyclobutane-2,4-dicarboxylic acid]
10 | – | – | 63 | – | CCCN(Cc1ccc(Oc2ccccc2)cc1)C(=O)[C@H]1[C@H](C(=O)O)[C@H](C(=O)N(C)CC/C=C(\C)CCC=C(C)C)[C@H]1C(=O)O (relative stereo) [Example 41, (1α,2β,3β,4α)-1-[N-Propyl-N-(4-phenoxybenzyl)aminocarbonyl]-3-[N-methyl-N-(homogeranyl)aminocarbonyl]cyclobutane-2,4-dicarboxylic acid]
11 | 23 | – | – | – | CCCN(CC=C=Cc1ccccc1)C(=O)C1C(C(=O)O)C(C(=O)N(CC=C=Cc2ccccc2)CCC)C1C(=O)O (stereo not drawn) [Example 60, (1α,2β,3β,4α)-1,3-Di[N-propyl-N-(4-phenyl-2,3-butadien-1-yl)aminocarbonyl]cyclobutane-2,4-dicarboxylic acid]
